In this data set the test system is normotensive dogs. In words: Ocular surface hyperemia in normotensive dogs. The format is in vivo. As to conditions: once daily for 5 days. The procedure: U.S. Pat. No. 7,091,231 describes the methods used for these in vivo tests.
5-(3-{(S)-1-[4-(1-Hydroxyhexyl)-phenyl]-5-oxo-pyrrolidin-2-yl}-propyl)-thiophene-2-carboxylic acid 2-hydroxyethyl ester (1) was tested in normotensive dogs at 0.003%, dosing once daily for 5 days. The maximum intraocular pressure (IOP) decrease from baseline was 4.4 mmHg (32%) at 30 h; the maximum ocular surface hyperemia (OSH) score was 0.9 at 30 h. This compound was also tested in laser-induced hypertensive monkeys, using one single day dose. At 0.003%, the maximum IOP decrease from baseline was 13.4 mmHg (38%) at 24 h. Compound 1 was also tested in normotensive dogs at 0.001%, dosing once daily for 5 days. The maximum intraocular pressure (IOP) decrease from baseline was 3.75 mmHg (23%) at 76 h; the maximum ocular surface hyperemia (OSH) score was 1.1 at 74 h. Compound 1 was also tested in laser-induced hypertensive monkeys, using one single day dose. At 0.001%, the maximum IOP decrease from baseline was 12.7 mmHg (31%) at 24 h.
5-(3-{(S)-1-[4-(1-Hydroxyhexyl)-phenyl]-5-oxo-pyrrolidin-2-yl}-propyl)-thiophene-2-carboxylic acid 2-morpholin-4-yl-ethyl ester (2) was tested in normotensive dogs at 0.003%, dosing once daily for 5 days. The maximum intraocular pressure (IOP) decrease from baseline was 5.9 mmHg (36%) at 52 h; the maximum ocular surface hyperemia (OSH) score was 1.1 at 50 h. This compound was also tested in laser-induced hypertensive monkeys, using one single day dose. At 0.003%, the maximum IOP decrease from baseline was 20 mmHg (53%) at 24 h.

The mark [1] stands for this setting: 0.003%, maximum at 30 h (1), 50 h (2).

On to `CCCCCC(O)c1ccc(N2C(=O)CC[C@@H]2CCCc2ccc(C(=O)OCCO)s2)cc1` (single isomer, unassigned) [Compound 1], for which the “maximum ocular surface hyperemia (OSH) score” value by setting is: (0.001%, maximum at 74 h) 1.1; under setting [1], 0.9. For `CCCCCC(O)c1ccc(N2C(=O)CC[C@@H]2CCCc2ccc(C(=O)OCCN3CCOCC3)s2)cc1` (single isomer, unassigned) [Compound 2], the “maximum ocular surface hyperemia (OSH) score” value under setting [1] was 1.1.

These data come from patent publication US7960381B2, “Substituted gamma lactams as therapeutic agents” (Allergan, Inc., priority 2007, dated 2011).
